In ChEMBL document CHEMBL6078659, “Comprehensive Insights into the Development of Antitoxoplasmosis Drugs: Current Advances, Obstacles, and Future Perspectives” (J Med Chem, 2024):
≈ marks a conversion by molar mass, not a printed value.

Columns and labels:
Type in all cases: functional, organism-based
Toxoplasma gondii [1] = assay: Antiparasitic activity against Toxoplasma gondii RH infected in human HFF cells
Toxoplasma gondii [2] = assay: Antiparasitic activity against Toxoplasma gondii assessed as parasitic growth inhibition
Toxoplasma gondii [3] = assay: Antiparasitic activity against Toxoplasma gondii RH
Toxoplasma gondii [4] = assay: Antiparasitic activity against Toxoplasma gondii

Row | Compound | IC50 (Toxoplasma gondii [1]) | IC50 (Toxoplasma gondii [2]) | other results
1 | CC1=CCC(C(C)(C)O)CC1 (stereo not given) | 4.4 µg/mL |  | 
2 | COc1c(N2CCNC(C)C2)c(F)cc2c(=O)c(C(=O)O)cn(C3CC3)c12 (stereo not given) [GATIFLOXACIN] |  | 4.1 µg/mL | 
3 | C=CCc1cc(OC)c(O[C@@H](C)[C@H](O)c2ccc(O)c(OC)c2)c(OC)c1 |  |  | IC50 (Toxoplasma gondii [3]): 32.4 µg/mL (≈ 86.6 µM)
4 | Oc1ccc(/C=C/c2cc(O)cc(O)c2)cc1 [RESVERATROL] |  |  | IC50 (Toxoplasma gondii [4]): 54600 nM
5 | C/C=C/C1=C(O)C(=O)c2ccccc2C1=O | 3010 nM | 3010 nM | 
6 | Oc1cc(Cl)ccc1Oc1ccc(Cl)cc1Cl [TRICLOSAN] |  |  | IC50 (Toxoplasma gondii [4]): 3000 nM
7 | C/C(=N\Nc1nc(-c2ccc([N+](=O)[O-])cc2)cs1)c1ccc(Nc2nc(N)nc(N)n2)cc1 | 14.9 µg/mL |  | 
8 | C=CC(C)(O)CCC=C(C)C (stereo not given) [LINALOOL] | 4.48 µg/mL |  | 
9 | O=C1C2=C(C(=O)c3ccccc31)[C@H]1Oc3ccc(Cl)cc3[C@H]1CO2 | < 1000 nM | < 10000 nM | 
10 | Cc1[nH]c2c(c(=O)c1-c1ccc(Oc3ccc(OC(F)(F)F)cc3)cc1)CCCC2 | 0.12 nM |  | 
11 | CCCCCCCCCCCCc1c(C)c(=O)c2ccccc2n1O [COMPOUND A] | 0.4 nM |  | 
12 | CC(C)=CCC/C(C)=C/CO [GERANIOL] |  |  | IC50 (Toxoplasma gondii [4]): 4 µg/mL
13 | COc1c(N2C[C@@H]3CCCN[C@@H]3C2)c(F)cc2c(=O)c(C(=O)O)cn(C3CC3)c12 [MOXIFLOXACIN] |  | 5.1 µg/mL | 
14 | C[C@@H]1CC[C@H]2[C@@H](C)C(=O)O[C@@H]3O[C@@]4(C)CC[C@@H]1[C@]32OO4 [ARTEMISININ] | 1700 nM |  | 
15 | O=C(NNC(=S)Nc1ccc(F)cc1)c1cccs1 |  | 33200 nM | 
16 | COC(=O)Cn1c(C(=O)NS(=O)(=O)C2=Cc3ccccc3C2)cc2cc(OC)ccc21 | 130 nM |  | 
17 | O=C1C(O)=C([C@H]2CC[C@H](c3ccc(Cl)cc3)CC2)C(=O)c2ccccc21 [ATOVAQUONE] |  | 70 nM | 
18 | CCCCCCCCCCCCc1c(C)n(O)c2ccccc2c1=O | 0.8 nM |  | 
19 | COc1ccc(/C=C/C(=O)C(=Cc2ccc(F)c(F)c2)C(=O)/C=C/c2ccc(OC)c(OC)c2)cc1OC |  |  | IC50 (Toxoplasma gondii [4]): 330 nM
20 | COc1cc(C2c3cc(c(O)cc3O)C(c3ccc(O)c(OC)c3)c3cc(c(O)cc3O)C(c3ccc(O)c(OC)c3)c3cc(c(O)cc3O)C(c3ccc(O)c(OC)c3)c3cc2c(O)cc3O)ccc1O (stereo not given) |  |  | IC50 (Toxoplasma gondii [4]): > 2000 µg/mL

Row | Compound | IC50 (Toxoplasma gondii [1]) | IC50 (Toxoplasma gondii [2]) | other results
21 | Cc1nc[nH]c1-c1nnc(Nc2ccc(I)cc2)s1 | 4.76 µg/mL |  | 
22 | Oc1ccccc1 [PHENOL] | 4.77 µg/mL |  | 
23 | Cc1[nH]c2cc(F)cc(F)c2c(=O)c1-c1ccc(Oc2ccc(OC(F)(F)F)cc2)cc1 | 5 nM |  | 
24 | COc1cc(/C=C/C(=O)CC(=O)/C=C/c2ccc(O)c(OC)c2)ccc1O [CURCUMIN] |  |  | IC50 (Toxoplasma gondii [4]): 38300 nM
25 | Cc1c(F)c(N2CCNC(C)C2)cc2c1c(=O)c(C(=O)O)cn2C1CC1 (stereo not given) [GREPAFLOXACIN] |  | 2.4 µg/mL | 
26 | O=C1C2=C(C(=O)c3ccccc31)[C@H]1Oc3ccc(Br)cc3[C@H]1CO2 | 2600 nM | 2600 nM | 
27 | CC1=C(c2nccs2)O[C@@H]2O[C@@]3(C)CC[C@H]4[C@H](C)CC[C@@H]1[C@@]24OO3 | 1000 nM |  | 
28 | CC(C)=CCC1=C(O)C(=O)c2ccccc2C1=O [LAPACHOL] | 0.4 µg/mL | 4880 nM | 
29 | N[C@@H]1[C@H]2CN(c3nc4c(cc3F)c(=O)c(C(=O)O)cn4-c3ccc(F)cc3F)C[C@@H]12 [TROVAFLOXACIN] |  | 0.4 µg/mL | 
30 | CCCCCCCCCCCCCCCCC1(C)SC(=O)C(CCC)=C1O (stereo not given) |  |  | IC50 (Toxoplasma gondii [4]): 2000 nM
31 | CC(C)CCCc1ccc2c(c1)C(=O)C=C(N1CCCC1)C2=O | 320 nM | 320 nM | 
32 | C=C(C)C1CC=C(C)C(=O)C1 (stereo not given) [CARVONE] | 16.1 µg/mL |  | 
33 | COC(=O)C1C(C)=CCCC1(C)C (stereo not given) | 242 µg/mL |  | 
34 | COc1cc(C=O)ccc1O [VANILLIN] |  |  | IC50 (Toxoplasma gondii [4]): 645 µg/mL
35 | O=C1C2=C(C(=O)c3ccccc31)[C@H]1Oc3ccccc3[C@H]1CO2 [PTEROCARPANQUINONE] | 2500 nM | 2500 nM | 
36 | C=C(C)C1CC=C(C)CC1 (stereo not given) | 241 µg/mL |  | 
37 | CCCCCCCCCCCCCCCCC1(C)SC(=O)C(Cc2ccccc2)=C1O (stereo not given) |  |  | IC50 (Toxoplasma gondii [4]): 6000 nM
38 | COc1cc(/C=C/C(=O)C(=Cc2ccc(F)c(F)c2)C(=O)/C=C/c2ccc(O)c(OC)c2)ccc1O |  |  | IC50 (Toxoplasma gondii [4]): 800 nM
39 | CC(C)=CCC/C(C)=C\C=O | 24 µg/mL |  | 
